Reference: the NIST ThermoML archive (doi:10.1016/j.jct.2005.12.010)
Several values for one entry are separate records, joined by “and”; a condition that tells them apart may be missing. Equal values may be shown once.

What was measured:
[1] = 101 kPa, Liquid
[2] = xn = mol fraction of the nth substance listed; details: 101 kPa, Liquid

CCCCO [butan-1-ol]
[1]
Details	mass density [kg/m3]	speed of sound [m/s]	viscosity [mPa·s]
293.15 K	809.5	1257	2.941
298.15 K	805.75	1240	2.571
303.15 K	801.8	1224	2.255

CCCCO [butan-1-ol] + CC1CCCC1
[2], x2 = 0
Details	speed of sound [m/s]
293.15 K	1257
298.15 K	1240
303.15 K	1224

CCC(C)O (stereo unspecified) [butan-2-ol]
[1]
Details	mass density [kg/m3]	speed of sound [m/s]	viscosity [mPa·s]
293.15 K	806.84	1230	3.623
298.15 K	802.72	1212	2.995
303.15 K	798.51	1194	2.493

CCC(C)O (stereo unspecified) [butan-2-ol] + CC1CCCC1
[2], x2 = 0
Details	speed of sound [m/s]
293.15 K	1230
298.15 K	1212
303.15 K	1194

CCO [ethanol]
[1]
Details	mass density [kg/m3]	speed of sound [m/s]	viscosity [mPa·s]
293.15 K	789.75	1162	1.187
298.15 K	785.46	1145	1.082
303.15 K	781.15	1128	0.987

CCO [ethanol] + CC1CCCC1
[2], x2 = 0
Details	mass density [kg/m3]	speed of sound [m/s]
293.15 K	789.75	1162
298.15 K	785.46	1145
303.15 K	781.15	1128

CC1CCCC1 [methylcyclopentane]
[1]
Details	mass density	speed of sound [m/s]	viscosity [mPa·s]
293.15 K	746.64 kg/m3	1197	0.504
298.15 K	741.94 kg/m3 and 741.9 kg/m3	1174	0.476
303.15 K	737.21 kg/m3	1150	0.45

CC1CCCC1 [methylcyclopentane] + CC(C)O
speed of sound [m/s], [2]
Details	293.15 K	298.15 K	303.15 K
x1 = 0.0478	1154	1136	1118
x1 = 0.1003	1152	1134	1115
x1 = 0.2092	1150	1130	1110
x1 = 0.2989	1150	1129	1108
x1 = 0.4151	1150	1129	1108
x1 = 0.4967	1152	1131	1109
x1 = 0.603	1156	1134	1111
x1 = 0.7118	1162	1140	1117
x1 = 0.8061	1170	1147	1124
x1 = 0.9026	1180	1157	1134
x1 = 0.9555	1187	1164	1141
x1 = 1	1197	1174	1150

CC1CCCC1 [methylcyclopentane] + CCC(C)O
speed of sound [m/s], [2]
Details	293.15 K	298.15 K	303.15 K
x1 = 0.0503	1223	1204	1186
x1 = 0.0966	1216	1198	1179
x1 = 0.198	1205	1185	1165
x1 = 0.3041	1194	1173	1153
x1 = 0.4088	1186	1164	1143
x1 = 0.5084	1180	1158	1137
x1 = 0.5961	1177	1155	1133
x1 = 0.7045	1176	1154	1132
x1 = 0.8151	1180	1157	1134
x1 = 0.9065	1185	1162	1139
x1 = 0.9532	1189	1166	1143
x1 = 1	1197	1174	1150

CC1CCCC1 [methylcyclopentane] + CCCC(C)O
speed of sound [m/s], [2]
Details	293.15 K	298.15 K	303.15 K
x1 = 0.0484	1244	1225	1206
x1 = 0.0999	1236	1217	1198
x1 = 0.1949	1223	1203	1183
x1 = 0.3177	1207	1187	1167
x1 = 0.4017	1198	1178	1157
x1 = 0.4945	1190	1169	1149
x1 = 0.6131	1184	1163	1141
x1 = 0.7107	1183	1161	1139
x1 = 0.815	1183	1161	1138
x1 = 0.9083	1187	1164	1141
x1 = 0.9535	1190	1167	1144
x1 = 1	1197	1174	1150

CC1CCCC1 [methylcyclopentane] + CCCCO
speed of sound [m/s], [2]
Details	293.15 K	298.15 K	303.15 K
x1 = 0.0485	1250	1233	1216
x1 = 0.0993	1243	1226	1208
x1 = 0.1973	1231	1213	1194
x1 = 0.3038	1219	1200	1180
x1 = 0.4036	1210	1190	1169
x1 = 0.5055	1202	–	–
x1 = 0.5078	–	1181	1160
x1 = 0.6152	1195	1173	1151
x1 = 0.7053	1191	1169	1146
x1 = 0.8132	1189	1166	1143
x1 = 0.9096	1190	1166	1143
x1 = 0.9537	1191	1168	1145
x1 = 1	1197	1174	1150

CC1CCCC1 [methylcyclopentane] + CCCO
speed of sound [m/s], [2]
Details	293.15 K	298.15 K	303.15 K
x1 = 0.0475	1217	1199	1182
x1 = 0.0967	1211	1193	1175
x1 = 0.2055	1201	1182	1163
x1 = 0.2984	1195	1175	1155
x1 = 0.4014	1189	1169	1148
x1 = 0.5007	1185	1164	1142
x1 = 0.6133	1183	1161	1139
x1 = 0.7115	1183	1160	1137
x1 = 0.8124	1184	1161	1138
x1 = 0.9073	1188	1164	1141
x1 = 0.9529	1191	1167	1144
x1 = 1	1197	1174	1150

CC1CCCC1 [methylcyclopentane] + CCO
[2]
Details	mass density, 293.15 K [kg/m3]	mass density, 298.15 K [kg/m3]	mass density, 303.15 K [kg/m3]	speed of sound, 293.15 K [m/s]	speed of sound, 298.15 K [m/s]	speed of sound, 303.15 K [m/s]
x1 = 0.0475	784.54	780.2	775.84	1156	1138	1121
x1 = 0.0967	780	775.6	771.3	1153	1135	1117
x1 = 0.2055	771.61	767.12	762.58	1149	1130	1111
x1 = 0.2984	766.18	761.61	756.99	1150	1130	1110
x1 = 0.4014	761.37	756.73	752.03	1153	1132	1111
x1 = 0.5007	757.5	752.79	748.03	1158	1136	1114
x1 = 0.6133	753.79	749.03	744.21	1163	1141	1118
x1 = 0.7115	751.2	746.42	741.58	1168	1146	1123
x1 = 0.8124	748.98	744.19	739.34	1175	1152	1129
x1 = 0.9073	747.36	742.58	737.75	1183	1159	1136
x1 = 0.9529	746.95	742.17	737.35	1188	1164	1141
x1 = 1	746.64	741.94	737.21	1197	1174	1150

CCCC(C)O (stereo unspecified) [pentan-2-ol]
[1]
Details	mass density [kg/m3]	speed of sound [m/s]	viscosity [mPa·s]
293.15 K	809.04	1250	4.001
298.15 K	805.01	1232	3.273
303.15 K	800.9	1214	2.774

CCCC(C)O (stereo unspecified) [pentan-2-ol] + CC1CCCC1
[2], x2 = 0
Details	speed of sound [m/s]
293.15 K	1250
298.15 K	1232
303.15 K	1214

CCCO [propan-1-ol]
[1]
Details	mass density [kg/m3]	speed of sound [m/s]	viscosity [mPa·s]
293.15 K	803.59	1223	2.159
298.15 K	799.58	1206	1.915
303.15 K	795.55	1189	1.713

CCCO [propan-1-ol] + CC1CCCC1
[2], x2 = 0
Details	speed of sound [m/s]
293.15 K	1223
298.15 K	1206
303.15 K	1189

CC(C)O [propan-2-ol]
[1]
Details	mass density [kg/m3]	speed of sound [m/s]	viscosity [mPa·s]
293.15 K	785.07	1156	2.382
298.15 K	780.9	1139	2.045
303.15 K	776.6	1121	1.763

CC(C)O [propan-2-ol] + CC1CCCC1
[2], x2 = 0
Details	speed of sound [m/s]
293.15 K	1156
298.15 K	1139
303.15 K	1121
